Reference: PMC8365601, “Terphenyl-Based Small-Molecule Inhibitors of Programmed Cell Death-1/Programmed Death-Ligand 1 Protein–Protein Interaction” (Journal of Medicinal Chemistry, 2021)
Like-named read-outs stand apart in the source and are kept apart here.

What was measured:
[1] = system: PBMCs cocultured with CHO/TCRAct/PD-L1 cells; assay: Cytokine accumulation in culture media of the TCA assay (CBA Th1/Th2/Th17 kit); type: cell-based, human; details: TCA assay supernatants, four donors
Description: In addition to the expression of surface markers, the accumulation of immune-related cytokines in the culture media collected in the TCA assay was monitored with the cytometric bead array (CBA) human Th1/Th2/Th17 kit. […] Also, the levels of IL-6, IFN-γ, and IL-2 increased, but these increases were not statistically significant.
The concentration of the cytokines (IL-2, IL-4, IL-6, IL-10, IL-17A, IFN-γ, and TNFα) in supernatants was determined using the CBA Human Th1/Th2/Th17 kit (BD Biosciences), with data acquisition using the FACSCanto flow cytometer. The CBA beads were discriminated in FL-4 and FL-5 channels, while the concentration of specified cytokines was determined by the intensity of FL-2 fluorescence, using the respective standard reference curve and FCAP Array software (BD Biosciences). IL-4 was below the detection level and is not presented in the manuscript. Statistical significance was analyzed with one-way ANOVA using the Origin Pro 2020 software, followed by the Fisher’s posthoc test: *p < 0.05, **p < 0.01, […].

[2] = biological target: T1, PD-1/PD-L1 interaction (Homo sapiens, UniProt Q9NZQ7); assay: PD-1/PD-L1 ICB assay (Jurkat-ECs with CHO/TCRAct/PD-L1 cells, luciferase); type: cell-based
T1 construct: host or cells: CHO-K1 (CHO/TCRAct/PD-L1) and Jurkat effector cells
Description: After a successful optimization of the terphenyl compounds, the activity of the optimized molecules 7a and 8a–j in a cellular context was assessed. To this end, we first performed the PD-1/PD-L1 ICB assay. In this assay, T-cell receptor (TCR)-mediated activation of Jurkat effector cells (Jurkat-ECs) is reduced by the presence of PD-L1, exposed at the surface of CHO/TCRAct/PD-L1 cells (Figure 3A).
The functional assay of the blockade of PD-1/PD-L1 interaction in vitro (PD-1/PD-L1 Blockade Bioassay, Promega) was performed according to the manufacturer’s protocol. CHO/TCRAct/PD-L1 cells or CHO/TCRAct or CHO-K1 cells were seeded on 96-well white plates at the density of 10,000 cells/well and the next day overlaid with Jurkat T cells (20,000 cells/well) in the presence of increasing concentrations of the compounds with DMSO only as a control (the concentration of DMSO was kept constant at 0.1%) or atezolizumab, as a positive control, anti-PD-L1 monoclonal antibody (Selleckchem). The 2.5-fold dilutions of atezolizumab were prepared in the assay buffer (RPMI 1640 + 1% FBS) on the day of the assay. Activation of the Jurkat T cells, reflected by luciferase activity, was monitored by luminescence measurements after 6 h of incubation (37 °C, 5% CO2), and 20 min of additional incubation with the Bio-Glo assay reagent (Promega) at room temperature. The luminescence was read on a Spark microplate reader (Tecan). The data are presented as fold induction of the luminescence signal relative to either untreated (for atezolizumab) or DMSO-treated (for compound) cells. Data points represent mean ± SD values from three to five independent experiments. Half-maximal effective concentrations (EC50 values) were calculated from the Hill curve fitting to the experimental data using Origin Pro 2020 software (OriginLab).

[3] = biological target: murine PD-L1 (Mus musculus, UniProt Q9EP73); assay: 1H NMR titration with murine PD-L1; type: binding; details: over-titration 1:10 protein:compound
Description: We additionally compared the spectra of the interaction of 8j with hPD-L1 (Figure 2B) and murine PD-L1 (mPD-L1) (Figure 2C). Only for human PD-L1, changes in NMR were observed upon addition of 8j to the protein.
NMR spectra were recorded in PBS pH 7.4 containing 10% (v/v) of D2O added to the samples to provide the lock signal. Water suppression was carried out using the WATERGATE sequence. All the spectra were recorded at 300 K using a Bruker AVANCE 600 MHz spectrometer with the cryo-platform. The spectra were recorded at the ligand/protein ratio of 1:1, unless stated otherwise. The samples were prepared by adding small amounts of a 50 mM ligand stock solution in DMSO to the protein solution (0.20 mL) of PD-L1 fragment at a concentration of 0.2 mM. Spectra were visualized using TopSpin 4.0.2.

[4] = system: primary CD4+ and CD8+ T cells (PBMCs); assay: T-cell activation (TCA) assay, PBMCs with CHO/TCRAct/PD-L1 cells, flow cytometry; type: cell-based, human; details: 48 h; compounds 0.1, 0.5, 2.5 μM; mAbs 5 μg/mL
Description: A standard ICB assay relies on artificial Jurkat-ECs, which are surrogates of T-cells. To verify the potential of the compounds to reactivate the PD-L1-blocked primary T cells, a modified assay termed T-cell activation (TCA) was carried out.[32] In this assay, human primary peripheral blood mononuclear cells (PBMCs) are allowed to make contact with CHO/TCRAct/PD-L1 cells alone or in the presence of PD-1/PD-L1 blockers, and the activation of CD4^+ and CD8^+ T cell is monitored by flow cytometry.
Anticoagulant citrate dextrose-A-treated blood from healthy donors was purchased from the Regional Center of Blood Donation and Blood Therapy in Krakow, Poland. PBMCs were isolated from whole blood by density gradient centrifugation using Pancoll human separating solution (PAN-Biotech GmbH, Aidenbach, Germany). The separated cells were washed and resuspended in RPMI 1640 medium (Biowest) containing 10% FBS (Biowest). PBMCs were added at an amount of 3 × 10^5 to CHO, CHO/TCRAct, or CHO/TCRAct/PD-L1 cells preseeded on 24-well plates in the presence of either anti-PD-L1 mAbs (at the final concentration 5 μg/mL): durvalumab (Selleckchem), atezolizumab (Selleckchem), or avelumab (MedChemExpress) or tested compounds at the concentrations 0.1, 0.5, and 2.5 μM. Untreated cells were used as controls for antibody treatment, while DMSO-treated cells [0.1% (v/v)] were used as controls for compound treatment. The cells were incubated for 48 h (37 °C, 5% CO2) and then detached from the plates with TrypLe Select Enzyme (Thermo Fisher). PBMCs were stained for 20 min at room temperature with the antibodies: anti-CD4-FITC, anti-CD8-BV510, anti-CD69-APC, anti-CD25-PE, anti-HLA-DR-PerCP, and anti-PD1-PECy7 (Becton Dickinson Biosciences, BD). Following two washing steps, the cells were analyzed with a FACSCanto II cytometer. Data analysis was carried out with FlowJo software, followed by statistical significance calculations done with Origin Pro 2020 software (OriginLab). Statistical significance was analyzed with one-way analysis of variance (ANOVA), followed by the Fisher’s posthoc test: *p < 0.05, **p < 0.01, […].

T1 sequence (Q9NZQ7 19-290): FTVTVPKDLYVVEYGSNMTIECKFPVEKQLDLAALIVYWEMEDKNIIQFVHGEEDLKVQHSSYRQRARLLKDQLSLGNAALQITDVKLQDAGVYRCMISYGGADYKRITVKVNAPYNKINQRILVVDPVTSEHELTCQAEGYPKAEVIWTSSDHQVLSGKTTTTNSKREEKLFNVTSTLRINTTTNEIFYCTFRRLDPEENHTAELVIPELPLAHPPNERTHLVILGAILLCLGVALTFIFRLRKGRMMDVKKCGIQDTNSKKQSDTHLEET
Sequence of murine PD-L1 (Q9EP73 18-134 limits assumed): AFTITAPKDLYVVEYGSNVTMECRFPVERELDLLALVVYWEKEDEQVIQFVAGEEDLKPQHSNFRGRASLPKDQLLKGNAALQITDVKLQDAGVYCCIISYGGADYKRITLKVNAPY

## COc1cc(-c2cccc(-c3ccc4c(c3)OCCO4)c2Cl)ccc1CNC(CO)(CO)CO [8j, 2-(((3′-(Benzo-1,4-dioxan-6-yl)-2′-chloro-3-methoxy-[1,1′-biphenyl]-4-yl)methyl)amino)-2-(hydroxymethyl)propane-1,3-diol]
[1]
  accumulation of immune-related cytokines in culture media: significant increases observed for IL-6, TNF-α, IFN-γ, IL-10, and IL-2
[2]; EC50 (tox.) vs EC50 (bio.), Figure 3F
  selectivity of PD-1/PD-L1-blocking activity versus cytotoxicity: highest selectivity
[2]; Jurkat-ECs with CHO/TCRAct/PD-L1, 6 h, SI csv, read-out: Bioactivity (EC50 in the ICB assay)
  EC50: 1030 ± 150 nM
[2]; read-out: EC50 in cell-based assays
  EC50: ~1000 nM
[3]
  interaction with mPD-L1 by 1H NMR: no interaction was observed
[4]
  numbers of PD-1-positive T cells: significant increase
  numbers of activated, CD25-positive and HLA-DR-positive T-cells: increased
